Test results as given in patent US20250388605A1, “HETEROBIFUNCTIONAL COMPOUNDS AND METHODS OF TREATING DISEASE” (Halda Therapeutics OpCo, Inc., priority 2022, published 2025).

Assays:
T47D cells = assay: Cellular Growth Inhibition Assay for T47D Cells (CellTiter-Glo); type: cell-based, human; details: 72 hours
Method: Exemplary compounds were tested for ability to inhibit the proliferation of T47D cells. T47D cells are a commercially available human breast cancer cell line.
T47D cells were purchased from American Type Cell Culture (ATCC Cat #HTB-133) and then seeded on poly-D-lysine coated, black clear-bottom 384-well plates at 3000/well in 25 μL Dulbecco's Modified Eagle Medium (DMEM) supplemented with 10% w/w Fetal bovine serum (FBS), 0.2 units/mL recombinant human insulin (Gibco Cat #12585014), and 1% w/w Pen-Strep. Pen-Strep is a commercially available mixture of penicillin G and streptomycin, which is used in mammalian cell culture media to prevent bacterial contamination. Dulbecco's Modified Eagle Medium (DMEM) supplemented with 10% w/w fetal bovine serum (FBS), 0.2 units/mL recombinant human insulin, and 1% w/w Pen-Strep is herein referred to as Treatment Medium. Following seeding of cells in the plates, the plates were spun at 300×g for 30 seconds, then equilibrated to room temperature for 30 minutes, and then deposited in a humidified tissue culture incubator maintained at 37° C. with 5% CO2.
At 24 hours after seeding of the cells, dilutions of test compound were prepared in DMSO and dissolved in Treatment Medium, to achieve a final DMSO concentration of 0.5% w/w, thereby providing the Test Compound Solution. A 25 μL aliquot of the Test Compound Solution was added to cells in the well plates. An equal volume of a solution containing DMSO and Treatment Medium was used as a negative control. Following treatment of cells with Test Compound Solution or said equal volume of a solution containing DMSO and Treatment Medium, the plates were spun at 300×g for 30 seconds, and then left in an incubator for 72 hours.
At the end of the treatment duration, cell viability was quantified with CellTiter-Glo 2.0 reagent (Promega Cat #G9243). For this purpose, plates were equilibrated to room temperature for 30 minutes, and then 25 μL of CellTiter-Glo 2.0 reagent was added to cells in the plate wells. Plates were then agitated on a shaker for two minutes at 500 rpm and subsequently incubated at room temperature for 10 minutes. Following incubation, the plates were spun at 3000×g for 30 seconds, then sealed with an optical adhesive cover, and luminescence readings were measured with an EnVision Plate Reader (Perkin Elmer).
Data was normalized using zero luminescence for baseline. A four-parameter non-linear regression curve fit was applied to dose-response data in GraphPad Prism data analysis software to determine the half-maximal growth inhibitory concentration (GI50) for each test compound.

[1] = test system: T-Rex 293 cell line SC3 cells having increased expression of androgen receptor protein due to exposure to doxycycline; assay: Cellular growth inhibition, T-Rex 293 SC3 cells with doxycycline (increased androgen receptor expression), CellTiter-Glo; type: cell-based; details: T-Rex 293 SC3 cells with 10 ng/mL doxycycline (increased androgen receptor expression), 72 hours, CellTiter-Glo 2.0
Method in brief: (§1)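 Doxycycline (10 ng/mL) was either included or omitted to toggle wild-type androgen receptor expression in SC3 cells, a T-Rex 293 clone, grown in stripped-serum, phenol red-free medium. After 72 hours with compound, viable cells were quantified by CellTiter-Glo 2.0.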

[2] = test system: T-Rex 293 cell line SC3 cells lacking increased expression of androgen receptor protein; assay: Cellular growth inhibition, T-Rex 293 SC3 cells without doxycycline (no increased androgen receptor expression), CellTiter-Glo; type: cell-based; details: T-Rex 293 SC3 cells not exposed to doxycycline (no increased androgen receptor expression), 72 hours
Method in brief: as §1

VCaP cells = assay: Cellular growth inhibition assay for VCaP cells, CellTiter-Glo; type: cell-based, human; details: 72 hours
Method in brief: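 GI50 values come from four-parameter curve fits of luminescence data normalized to a zero baseline. Compound, in medium with 0.5% DMSO, was added one day after plating and left for 72 h before CellTiter-Glo 2.0 addition.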

| SMILES | GI50 (T47D cells) [nM] | GI50 [1] [nM] | GI50 [2] [nM] | GI50 (VCaP cells) [nM] | GI50 (T47D cells; Homo sapiens) [nM] | GI50 (VCaP cells; Homo sapiens) [nM] |
| --- | --- | --- | --- | --- | --- | --- |
| Cn1cc(-c2cc(C(C)(C)O)ccc2Oc2ccc(C3CC(N4CC5(CN(c6ncc(C(=O)N[C@H]7C(C)(C)[C@H](Oc8ccc(C#N)c(Cl)c8)C7(C)C)cn6)C5)C4)C3)cc2)c2cc[nH]c2c1=O (some centres unmarked) [Compound I-331] | < 500 | < 500 | < 500 | < 500 |  |  |
| CCS(=O)(=O)c1ccc(OC2CC(CCN3CCC4(CCN(c5ncc(C(=O)N[C@H]6C(C)(C)[C@H](Oc7ccc(C#N)c(Cl)c7)C6(C)C)cn5)C4)C3)C2)c(-c2cn(C)c(=O)c3[nH]ccc23)c1 (some centres unmarked) [Compound I-270, N-[3-(3-chloro-4-cyano-phenoxy)-2,2,4,4-tetramethyl-cyclobutyl]-2-[7-[2-[3-[4-ethylsulfonyl-2-(6-methyl-7-oxo-1H-pyrrolo[2,3-c]pyridin-4-yl)phenoxy]cyclobutyl]ethyl]-2,7-diazaspiro[4.4]nonan-2-yl]pyrimidine-5-carboxamide] |  | < 500 | 500 to 1500 |  | < 500 | < 500 |
| CCS(=O)(=O)Cc1ccc(Oc2cccc(N3CC(N4CCN(c5ncc(C(=O)N[C@H]6C(C)(C)[C@H](Oc7ccc(C#N)c(Cl)c7)C6(C)C)cn5)CC4)C3)c2)c(-c2cn(C)c(=O)c3[nH]ccc23)c1 [Compound I-114] |  | < 500 | < 500 |  | < 500 | < 500 |
| Cn1cc(-c2cc(C(C)(C)O)ccc2Oc2ccc(N3CC(CC4CCN(c5ncc(C(=O)N[C@H]6C(C)(C)[C@H](Oc7ccc(C#N)c(Cl)c7)C6(C)C)cn5)CC4)C3)nc2)c2cc[nH]c2c1=O [Compound I-333, N-[3-(3-chloro-4-cyano-phenoxy)-2,2,4,4-tetramethyl-cyclobutyl]-2-[4-[[1-[5-[4-(1-hydroxy-1-methyl-ethyl)-2-(6-methyl-7-oxo-1H-pyrrolo[2,3-c]pyridin-4-yl)phenoxy]-2-pyridyl]azetidin-3-yl]methyl]-1-piperidyl]pyrimidine-5-carboxamide] |  | < 500 | > 3000 |  | < 500 | < 500 |
| CCS(=O)(=O)c1ccc(Oc2ccc(OC3CC4(CCN(c5ncc(C(=O)N[C@H]6C(C)(C)[C@H](Oc7ccc(C#N)c(Cl)c7)C6(C)C)cn5)CC4)C3)c(F)c2)c(-c2cn(C)c(=O)c3[nH]ccc23)c1 [Compound I-283] |  | < 500 | > 3000 |  | < 500 | < 500 |
| Cn1cc(-c2cc(C(C)(C)O)ccc2OC2CC3CC2CC3OCC2CCN(c3ncc(C(=O)N[C@H]4C(C)(C)[C@H](Oc5ccc(C#N)c(Cl)c5)C4(C)C)cn3)CC2)c2cc[nH]c2c1=O (some centres unmarked) [Compound I-296] | > 3000 | < 500 | > 3000 | < 500 |  |  |
| Cn1cc(-c2cc(C(C)(C)O)ccc2Oc2ccc(CCC3CCCN(c4ncc(C(=O)N[C@H]5C(C)(C)[C@H](Oc6ccc(C#N)c(Cl)c6)C5(C)C)cn4)C3)cc2)c2cc[nH]c2c1=O (some centres unmarked) [Compound I-301] | < 500 | < 500 | > 3000 | 500 to 1500 |  |  |
| Cn1cc(-c2cc(C(C)(C)O)ccc2Oc2ccc(N3CC(CC4CCN(c5ncc(C(=O)N[C@H]6C(C)(C)[C@H](Oc7ccc(C#N)c(Cl)c7)C6(C)C)cn5)CC4)C3)cn2)c2cc[nH]c2c1=O [Compound I-345, N-[3-(3-chloro-4-cyano-phenoxy)-2,2,4,4-tetramethyl-cyclobutyl]-2-[4-[[1-[6-[4-(1-hydroxy-1-methyl-ethyl)-2-(6-methyl-7-oxo-1H-pyrrolo [2,3-c]pyridin-4-yl)phenoxy]-3-pyridyl]azetidin-3-yl]methyl]-1-piperidyl]pyrimidine-5-carboxamide] |  | < 500 | > 3000 |  | < 500 | < 500 |
| Cn1cc(-c2cc(C(C)(C)O)ccc2Oc2ccc(CCOC3CCN(c4ncc(C(=O)N[C@H]5C(C)(C)[C@H](Oc6ccc(C#N)c(Cl)c6)C5(C)C)cn4)CC3)cn2)c2cc[nH]c2c1=O [Compound I-315] |  | < 500 | > 3000 |  | 500 to 1500 | < 500 |
| Cn1cc(-c2cc(C(C)(C)O)ccc2Oc2ccc(OC3CCN(c4ncc(C(=O)N[C@H]5C(C)(C)[C@H](Oc6ccc(C#N)c(Cl)c6)C5(C)C)cn4)CC3)nc2)c2cc[nH]c2c1=O [Compound I-297, N-[3-(3-chloro-4-cyano-phenoxy)-2,2,4,4-tetramethyl-cyclobutyl]-2-[4-[[5-[4-(1-hydroxy-1-methyl-ethyl)-2-(6-methyl-7-oxo-1H-pyrrolo[2,3-c]pyridin-4-yl)phenoxy]-2-pyridyl]oxy]-1-piperidyl]pyrimidine-5-carboxamide] |  | < 500 | < 500 |  | < 500 | < 500 |
| CCS(=O)(=O)c1ccc(Oc2ccc(CN3CC4(C3)CN(c3ncc(C(=O)N[C@H]5C(C)(C)[C@H](Oc6ccc(C#N)c(Cl)c6)C5(C)C)cn3)CCO4)cc2)c(-c2cn(C)c(=O)c3[nH]ccc23)c1 [Compound I-261] | < 500 | < 500 | < 500 | < 500 |  |  |
| Cn1cc(-c2cc(C(C)(C)O)ccc2Oc2cccc(N3CC(CN4CCN(c5ncc(C(=O)N[C@H]6C(C)(C)[C@H](Oc7ccc(C#N)c(Cl)c7)C6(C)C)cn5)CC4(C)C)C3)c2F)c2cc[nH]c2c1=O [Compound I-294] | < 500 | < 500 | > 3000 | < 500 |  |  |
| Cn1cc(-c2cc(C(C)(C)O)ccc2OCC(CCOC2CCN(c3ncc(C(=O)N[C@H]4C(C)(C)[C@H](Oc5ccc(C#N)c(Cl)c5)C4(C)C)cn3)CC2)C2CC2)c2cc[nH]c2c1=O (some centres unmarked) [Compound I-265] | 1500 to 3000 | < 500 | 500 to 1500 | 500 to 1500 |  |  |
| Cn1cc(-c2cc(C(C)(C)O)ccc2O[C@H]2C[C@H](CCC3CCN(c4ncc(C(=O)N[C@H]5C(C)(C)[C@H](Oc6ccc(C#N)c(Cl)c6)C5(C)C)cn4)CC3)C2)c2cc[nH]c2c1=O [Compound I-310] | < 500 | < 500 | < 500 | < 500 |  |  |
| CCS(=O)(=O)Nc1ccc(Oc2cccc(N3CC(CC4CCN(c5ncc(C(=O)N[C@H]6C(C)(C)[C@H](Oc7ccc(C#N)c(Cl)c7)C6(C)C)cn5)CC4)C3)c2)c(-c2cn(C)c(=O)c3[nH]ccc23)c1 [Compound I-79] |  | < 500 | 500 to 1500 |  | < 500 | < 500 |
| Cn1cc(-c2cc(C(C)(C)O)ccc2Oc2ccc(CCC3CCN(c4cnc(C(=O)N[C@H]5C(C)(C)[C@H](Oc6ccc(C#N)c(Cl)c6)C5(C)C)cn4)CC3)cc2)c2cc[nH]c2c1=O [Compound I-335] | < 500 | > 3000 | > 3000 | 500 to 1500 |  |  |
| Cn1cc(-c2cc(C(C)(C)O)ccc2Oc2ccc(CN3CC4(C3)CN(c3ncc(C(=O)N[C@H]5C(C)(C)[C@H](Oc6ccc(C#N)c(Cl)c6)C5(C)C)cn3)C4)cc2)c2cc[nH]c2c1=O [Compound I-327] |  | < 500 | < 500 |  | < 500 | < 500 |
| CCS(=O)(=O)Nc1ccc(Oc2cccc(N3CCN(CC4CCN(c5ncc(C(=O)N[C@H]6C(C)(C)[C@H](Oc7ccc(C#N)c(Cl)c7)C6(C)C)cn5)CC4)CC3)c2)c(-c2cn(C)c(=O)c3[nH]ccc23)c1 [Compound I-37] |  | < 500 | < 500 |  | 500 to 1500 | < 500 |
| Cn1cc(-c2cc(C(C)(C)O)ccc2Oc2ccc(CCN3CC4(C3)CN(c3ncc(C(=O)N[C@H]5C(C)(C)[C@H](Oc6ccc(C#N)c(Cl)c6)C5(C)C)cn3)C4)cc2)c2cc[nH]c2c1=O [Compound I-259] | < 500 | < 500 | 500 to 1500 | < 500 |  |  |
| CCS(=O)(=O)Nc1ccc(Oc2cccc(OCC3CCN(c4ncc(C(=O)N[C@H]5C(C)(C)[C@H](Oc6ccc(C#N)c(Cl)c6)C5(C)C)cn4)CC3)c2)c(-c2cn(C)c(=O)c3[nH]ccc23)c1 [Compound I-25] |  | < 500 | < 500 |  | < 500 | < 500 |
